Data from patent publication US7429482B2, “Screening tools for discovery of novel anabolic agents” (United States of America as represented by the Department …, priority 2005, dated 2008).

Key:
[1] = test system: MAFbx; experiment: Acute denervation: MAFbx mRNA in EDL and soleus (qPCR); type: in vivo, rat; conditions: nandrolone 1.5 mg/kg/wk 14 days
Protocol: (§1) Male Wistar rats weighing 250 gm (Taconic Farms, Germantown, N.Y.) were provided food and water ad libitum and were housed in a temperature and humidity controlled environment providing a 12:12 hour day-night cycle. For surgical procedures, animals were anesthetized with ketamine/xylazine. The left sciatic nerve was exposed by blunt dissection, and a 1 to 2 mm piece of this nerve was excised just below the level of the femoral head. A sham surgery was performed on the right hind limb in which the sciatic nerve was exposed but was not transected. Model 2002 Alzet pumps were implanted subcutaneously on the back. […] A pellet containing 15 mg of testosterone (Innovative Research of America, Sarasota, Fla.) administered as a continuous infusion (5 mg/wk), or a pellet containing placebo, was inserted into a subcutaneous pouch. […] Because testosterone is known to have anabolic actions (Ferrando et al., Am J Physiol Endocrinol Metab 282: E601-E607, 2002; Mauras et al., J Clin Endocrinol Metab 83: 1886-1892, 1998; Urban et al., Am J Physiol 269: E820-E826, 1995), reductions in levels of this hormone could affect muscle mass and confound interpretation of the results. Animals were euthanized 14 days later by inhalation of carbon dioxide. […]
(§2) Total RNA was extracted from skeletal muscle (20 mg) by homogenization in guanidine thiocyanate using a Polytron followed by extraction using phenol-chloroform (Chomczynski and Sacchi, Anal Biochem 162: 156-159, 1987). […] Total RNA was then eluted and quantified by absorbance at 260 nm. […] Levels of gene expression in the denervated muscle were expressed as fold induction relative to muscle from the sham-denervated leg of animals administered vehicle. […] Fold-induction was determined using the 2^−ΔΔCt method, using expression of 18S RNA as the normalization control. […]

[2] = test system: IGF-1 receptor (IGF-1R); experiment: Acute denervation: IGF-1 receptor mRNA in EDL and soleus (qPCR); type: in vivo, rat
Protocol: Male Wistar rats weighing 250 gm (Taconic Farms, Germantown, N.Y.) were provided food and water ad libitum and were housed in a temperature and humidity controlled environment providing a 12:12 hour day-night cycle. For surgical procedures, animals were anesthetized with ketamine/xylazine. The left sciatic nerve was exposed by blunt dissection, and a 1 to 2 mm piece of this nerve was excised just below the level of the femoral head. A sham surgery was performed on the right hind limb in which the sciatic nerve was exposed but was not transected. Model 2002 Alzet pumps were implanted subcutaneously on the back. […] A pellet containing 15 mg of testosterone (Innovative Research of America, Sarasota, Fla.) administered as a continuous infusion (5 mg/wk), or a pellet containing placebo, was inserted into a subcutaneous pouch. […]
as §2

[3] = test system: IGF-1; experiment: Acute denervation: IGF-1 mRNA in EDL and soleus (qPCR); type: in vivo, rat; conditions: nandrolone 1.5 mg/kg/wk 14 days
Protocol: as §1, §2

[4] = test system: starved, cultured muscle cells; experiment: Muscle breakdown in starved, cultured muscle cells; type: cell-based
[5] = target: GR; conditions: Danhaive and Rousseau 1986; cited from earlier work
[6] = test system: MAFbx; experiment: MAFbx expression in gastrocnemius of rats infused with dexamethasone with or without testosterone (qPCR); type: in vivo; conditions: rat, dexamethasone plus testosterone 28 mg/kg/day, 7 days
Protocol: Muscle was flash frozen on dry ice after excision. Total RNA was isolated by phenol:chloroform extraction (Chomczynski and Sacchi, Anal Biochem 162: 156-159, 1987) and further enriched using RNAeasy minicolumns (Qiagen) with digestion on the column with RNAse-free DNAse (Qiagen).
RNA was quantified by absorbance at 260 nm. One microgram of total RNA was used to prepare cDNA libraries using the High Capacity cDNA Archive Kit (Applied Biosystems, Foster City, Calif.). Libraries were diluted 25-fold with water. Real time PCR was performed using Taqman 2×PCR buffer (Applied Biosystems) and an Applied Biosystems 7500 thermocycler. Data were normalized relative to that for 18S RNA. Relative changes in expression were determined using the 2^−ΔΔCt method. Taqman Assay on Demand probes (Applied Biosystems) were used for all assays except rat 18S RNA, which was quantified using the following […]: Forward: […] (SEQ ID NO:15); Reverse: […] (SEQ ID NO:16); Probe: FAM-[…] (SEQ ID NO:17; Labeled with FAM and non-fluoresent quencher, NFQ, at 5′ and 3′ ends, repsectively).
Male Wistar rats weighing 250 gm were anesthetized with ketamine/xylazine followed by implantation Alzet miniosmotic pumps administering vehicle (propylene glycocol), dexamethasone (0.7 mg/kg/day), or dexamethasone plus testosterone (28 mg/kg/day). […]

## C[C@]12CC[C@H]3[C@@H](CCC4=CC(=O)CC[C@@H]43)[C@@H]1CC[C@@H]2O [nandrolone]
[1]; denervated EDL
  MAFbx expression: reductions were not statistically significant
[1]; denervated soleus
  MAFbx expression: significantly reduced
[1]; sham-denervated EDL or soleus
  MAFbx expression: did not significantly alter
[2]; denervated soleus or EDL
  IGF-1R expression: No appreciable effects
[2]; sham-denervated soleus and EDL, changes not significant
  IGF-1R expression: tended to increase
[3]; denervated EDL
  IGF-1 expression: significantly reduced
[3]; denervated or sham-denervated soleus
  IGF-1 expression: did not significantly affect
[3]; sham-denervated EDL
  IGF-1 expression: significantly reduced

## C[C@]12CC[C@H]3[C@@H](CCC4=CC(=O)CC[C@@]43C)[C@@H]1CC[C@@H]2O [testosterone]
[4]
  muscle breakdown: reduced
[5]
  Kd: ~200 nM
[6]
  effects of dexamethasone on MAFbx expression in gastrocnemius: completely blocked
